From US12357701B2, “Anti-HER2 biparatopic antibody-drug conjugates and methods of use” (Zymeworks BC Inc., priority 2018, dated 2025) come the findings set out here.

Molecules are shown by their SMILES.

Type in all cases: in vivo, cynomolgus monkeys
Data set [1] can be described thus: Non-GLP repeat-dose toxicity study of v21252. Conditions: after repeat administration of v21252 9 or 12 mg/kg; all below limit of quantitation except three animals.
Description: (§1) All animals were evaluated for changes in clinical signs, food consumption, body weight, blood pressure, ECGs, respiration rates (visual), clinical pathology (hematology, clinical chemistry, coagulation, urinalysis), organ weights, and macroscopic/microscopic examination of tissues.
The nature of data set [2]: GLP toxicity study of v21252.
Description: as §1
Data set [3] can be described thus: Single-dose pharmacokinetics/tolerability study of v17597 and v21252. Conditions: all below LLOQ.
Description: General tolerability was assessed with clinical observations, body weight, food consumption, and clinical pathology (hematology and clinical chemistry).
Serum concentrations of total antibody were analyzed using an Electrochemiluminescence assay with Meso Scale Discovery platform (ECL/MSD) with anti-pertuzumab antibody as the capture agent and anti-trastuzumab sulfo-TAG as the detection agent.
Serum samples were precipitated with acetonitrile/methanol (50:50, v/v) and supernatants were analyzed. The liquid chromatography system used was a reverse phase column with a gradient flow consisting of water/acetic acid (100/0.05, v/v) and acetonitrile.
Non-compartmental analysis of the serum sample bioanalytical results was used to derive PK parameters (maximum serum concentration [Cmax], terminal half-life [T1/2], clearance [CL] and apparent volume of distribution [Vss]).

For the compound `CCC(C)[C@@H]([C@@H](CC(=O)N1CCC[C@H]1[C@H](OC)[C@@H](C)C(=O)NS(=O)(=O)c1ccc(N)cc1)OC)N(C)C(=O)[C@@H](NC(=O)[C@H](C(C)C)N(C)C)C(C)C` (stereo in doubt) [Compound 9, (S)—N-((3R,4S,5R)-1-((S)-2-((1R,2R)-3-((4-aminophenyl)sulfonamido)-1-methoxy-2-methyl-3-oxopropyl)pyrrolidin-1-yl)-3-methoxy-5-methyl-1-oxoheptan-4-yl)-2-((S)-2-(dimethylamino)-3-methylbutanamido)-N,3-dimethylbutanamide], the “payload (Compound 9) serum concentration” value in data set [1] is listed as less than 0.500 ng/mL. Besides, the “toxin (Compound 9) serum concentration” value in data set [2] (after repeat administrations of v21252, most concentrations below limit of quantitation) is on record as less than 0.500 ng/mL; in data set [3] (after single dose of v17597 (3, 6 or 9 mg/kg)) it was less than 5.00 ng/mL; in data set [3] (after single dose of v21252 (9 or 12 mg/kg)) it was less than 5.00 ng/mL. In data set [2] (male, cynomolgus monkey, serum, iv, 18 mg/kg), this compound came in with an exposure AUC(0-t) of 125 ng·h/mL.
